pKi: −log10 of the molar value. Structures can show the parent of a compound that is named as a salt.
Assays:
[1] = biological target: D2 receptors from African Green monkey; assay: D2 receptor binding (displacement of 3H-YM 09151-2); conditions: COS cells with recombinant D2 receptors; 0.5 nM 3H-YM 09151-2; nonspecific binding with 1 mM spiperone
Method: (§1) Pellets of COS cells containing recombinantly produced D2 or D3 receptors from African Green monkey were used for the assays. The sample is homogenized in 100 volumes (w/vol) of 0.05M Tris HCI buffer at 4° C and pH 7.4. The sample is then centfifuged at 30,000×g and resuspended and rehomogenized. The sample is then centdfuged as described and the final tissue sample is frozen until use. The tissue is resuspended 1:20 (wt/vol) in 0.05M Tris HCl buffer containing 100 mM NaCl.
(§2) Incubations are carried out at 48° C and contain 0.4 ml of tissue sample, 0.5 nM ^3 H-YM 09151-2 and the compound of interest in a total incubation of 1.0 ml. Nonspecific binding is defined as that binding found in the presence of 1 mM spiperone; without further additions, nonspecific binding is less than 20% of total binding. The binding characteristics of representative compounds of the invention for D2 and D3 receptor subtypes are shown in Table 2 for rat striatal homogenates.

[2] = biological target: T1, D3 receptors from African Green monkey (Chlorocebus aethiops, UniProt P52703); assay: D3 receptor binding (displacement of 3H-YM 09151-2); conditions: COS cells with recombinant D3 receptors; 0.5 nM 3H-YM 09151-2; nonspecific binding with 1 mM spiperone
T1 construct: expressed in transfected cells; host or cells: COS cells
T1 sequence (P52703 whole entry): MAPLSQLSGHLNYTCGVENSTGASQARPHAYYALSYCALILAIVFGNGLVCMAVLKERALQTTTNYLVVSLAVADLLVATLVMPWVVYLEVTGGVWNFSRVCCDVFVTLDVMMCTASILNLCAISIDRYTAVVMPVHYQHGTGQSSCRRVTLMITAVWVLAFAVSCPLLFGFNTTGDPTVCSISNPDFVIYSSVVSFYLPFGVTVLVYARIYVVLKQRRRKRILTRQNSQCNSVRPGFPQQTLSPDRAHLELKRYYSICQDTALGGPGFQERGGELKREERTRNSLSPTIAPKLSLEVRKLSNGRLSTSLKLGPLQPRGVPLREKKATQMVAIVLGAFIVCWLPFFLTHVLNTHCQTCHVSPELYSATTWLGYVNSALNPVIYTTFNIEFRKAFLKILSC
Method: as §1, §2

SMILES | pKi [1] | pKi [2]
COc1ccccc1N1CCN(CCCCNC(=O)c2ccc3c(c2)-c2ccccc2-3)CC1 [Compound 1, 1-(2-Methoxyphenyl)-4-{4-[N-(1-biphenylene-2-carboxamido)]butyl}piperazine] | 6.49 | 8.30
O=C(NCCCCN1CCN(c2nccc3ccccc23)CC1)c1ccc2c(c1)-c1ccccc1-2 [Compound 4, 1-(1-Isoquinolyl)-4-{4-[N-(1-biphenylene-2-carboxamido)]butyl}piperazine d ihydrochloride] | < 7.00 | 7.82
O=C(NCCCCN1CCN(c2cccc3ccccc23)CC1)c1ccc2c(c1)-c1ccccc1-2 [Compound 3, 1-(1-Napthyl)-4-{4-[N-(1-biphenylene-2-carboxamido)]butyl}piperazine dihydrochloride] | 6.86 | 8.52
